Data reported in US20230059463A1, “3-(2-BROMO-4-ALKYNYL-6-ALKOXYPHENYL)-SUBSTITUTED 5-SPIROCYCLOHEXYL-3-PYRROLIN-2-ONES AND THEIR USE AS HERBICIDES” (Bayer Aktiengesellschaft, priority 2019, published 2023).

Experiments:
Format in all cases: in vivo
Lolium rigidum [1] = experiment: Pre-emergence herbicidal effect; conditions: 80 g/ha, scored visually after 3 weeks, 100% = plants have died, 0% = like control plants
Excerpt: (§1) Seeds of monocotyledonous and dicotyledonous weed plants and crop plants are laid out in sandy loam soil in wood-fiber pots and covered with soil. The compounds of the invention, formulated in the form of wettable powders (WP) or as emulsion concentrates (EC), are then applied to the surface of the covering soil as aqueous suspension or emulsion at a water application rate equating to 600 to 800 L/ha with addition of 0.2% wetting agent.
(§2) After the treatment, the pots are placed in a greenhouse and kept under good growth conditions for the trial plants. The damage to the test plants is scored visually after a test period of 3 weeks by comparison with untreated controls (herbicidal activity in percent (%): 100% activity=the plants have died, 0% activity=like control plants).

Avena fatua = experiment: Pre-emergence herbicidal effect; conditions: 80 g/ha, scored visually after 3 weeks, 100% = plants have died, 0% = like control plants
Excerpt: as §1, §2

Hordeum murinum [2] = experiment: Pre-emergence herbicidal effect; conditions: 80 g/ha, scored visually after 3 weeks, 100% = plants have died, 0% = like control plants
Excerpt: as §1, §2

Alopecurus myosuroides [3] = experiment: Pre-emergence herbicidal effect; conditions: 80 g/ha, scored visually after 3 weeks, 100% = plants have died, 0% = like control plants
Excerpt: as §1, §2

Setaria viridis [4] = experiment: Pre-emergence herbicidal effect; conditions: 80 g/ha, scored visually after 3 weeks, 100% = plants have died, 0% = like control plants
Excerpt: as §1, §2

Echinochloa crus-galli [5] = experiment: Pre-emergence herbicidal effect; conditions: 80 g/ha, scored visually after 3 weeks, 100% = plants have died, 0% = like control plants
Excerpt: as §1, §2

Lolium rigidum [6] = experiment: Post-emergence herbicidal effect; conditions: 80 g/ha, post-emergence at one-leaf stage, assessed visually after about 3 weeks; 100% = plants have died, 0% = like control plants
Procedure: (§3) Seeds of monocotyledonous and dicotyledonous weed and crop plants are laid out in sandy loam soil in wood-fiber pots, covered with soil and cultivated in a greenhouse under good growth conditions. 2 to 3 weeks after sowing, the test plants are treated at the one-leaf stage. The compounds of the invention, formulated in the form of wettable powders (WP) or as emulsion concentrates (EC), are then sprayed onto the green parts of the plants as aqueous suspension or emulsion at a water application rate equating to 600 to 800 l/ha with addition of 0.2% wetting agent. After the test plants have been left to stand in the greenhouse under optimal growth conditions for about 3 weeks, the action of the preparations is assessed visually in comparison to untreated controls (herbicidal action in per cent (%): 100% activity=the plants have died, 0% activity=like control plants).

Hordeum murinum [7] = experiment: Post-emergence herbicidal effect; conditions: 80 g/ha, post-emergence at one-leaf stage, assessed visually after about 3 weeks; 100% = plants have died, 0% = like control plants
Procedure: as §3

Alopecurus myosuroides [8] = experiment: Post-emergence herbicidal effect; conditions: 80 g/ha, post-emergence at one-leaf stage, assessed visually after about 3 weeks; 100% = plants have died, 0% = like control plants
Procedure: as §3

Digitaria sanguinalis = experiment: Post-emergence herbicidal effect; conditions: 80 g/ha, post-emergence at one-leaf stage, assessed visually after about 3 weeks; 100% = plants have died, 0% = like control plants
Procedure: as §3

Setaria viridis [9] = experiment: Post-emergence herbicidal effect; conditions: 80 g/ha, post-emergence at one-leaf stage, assessed visually after about 3 weeks; 100% = plants have died, 0% = like control plants
Procedure: as §3

Echinochloa crus-galli [10] = experiment: Post-emergence herbicidal effect; conditions: 80 g/ha, post-emergence at one-leaf stage, assessed visually after about 3 weeks; 100% = plants have died, 0% = like control plants
Procedure: as §3

SMILES | Pre-emergence action against LOLRI (herbicidal activity in percent) (Lolium rigidum [1]) | Pre-emergence action against AVEFA (herbicidal activity in percent) (Avena fatua) | Pre-emergence action against HORMU (herbicidal activity in percent) (Hordeum murinum [2]) | Pre-emergence action against ALOMY (herbicidal activity in percent) (Alopecurus myosuroides [3]) | Pre-emergence action against SETVI (herbicidal activity in percent) (Setaria viridis [4]) | Pre-emergence action against ECHCG (herbicidal activity in percent) (Echinochloa crus-galli [5]) | Post-emergence action against LOLRI (herbicidal action in per cent) (Lolium rigidum [6]) | Post-emergence action against HORMU (herbicidal action in per cent) (Hordeum murinum [7]) | Post-emergence action against ALOMY (herbicidal action in per cent) (Alopecurus myosuroides [8]) | Post-emergence action against DIGSA (herbicidal action in per cent) (Digitaria sanguinalis) | Post-emergence action against SETVI (herbicidal action in per cent) (Setaria viridis [9]) | Post-emergence action against ECHCG (herbicidal action in per cent) (Echinochloa crus-galli [10])
C#Cc1cc(Br)c(C2=C(O)C3(CCCC(OCCC)C3)NC2=O)c(OC)c1 (stereo not shown) [Example 1.1.01] | 100% | 100% | 90% | 90% | 100% | 100% | 90% | 80% | 90% | 90% | 100% | 100%
C#Cc1cc(Br)c(C2=C([O-])C3(CCCC(OCCC)C3)NC2=O)c(OC)c1.[Na+] (stereo not shown) [Example 1.1.02] | 100% | 100% | 100% | 100% | 100% | 100% | 100% | 100% | 100% | 100% | 100% | 100%
C#Cc1cc(Br)c(C2=C([O-])C3(CCCC(OCCOC)C3)NC2=O)c(OC)c1.[Na+] (stereo not shown) [Example 1.1.06] | 100% | 100% | 100% | 100% | 100% | 100% | 100% | 90% | 100% | 100% | 90% | 100%
CC#Cc1cc(Br)c(C2=C(OC(=O)OCC)C3(CCCC(OCCOC)C3)NC2=O)c(OC)c1 (stereo not shown) [Example 1.1.15] | 100% | 100% | 100% | 100% | 100% | 100% | 100% | 100% | 100% | – | 100% | 100%
CC#Cc1cc(Br)c(C2=C(OC(=O)C(C)C)C3(CCCC(OCCOC)C3)NC2=O)c(OC)c1 (stereo not shown) [Example 1.1.16] | 100% | 100% | 100% | 100% | 100% | 100% | 100% | 100% | 100% | – | 100% | 100%
CC#Cc1cc(Br)c(C2=C(O)C3(CCCC(OCCOC)C3)NC2=O)c(OCC)c1 (stereo not shown) [Example 1.1.17] | – | – | – | – | – | – | 100% | 100% | 100% | 100% | 100% | 100%
CC#Cc1cc(Br)c(C2=C([O-])C3(CCCC(OCCOC)C3)NC2=O)c(OCC)c1.[Na+] (stereo not shown) [Example 1.1.18] | – | – | – | – | – | – | 100% | 100% | 100% | 100% | 100% | 100%
CC#Cc1cc(Br)c(C2=C(OC(=O)OCC)C3(CCCC(OCCOC)C3)NC2=O)c(OCC)c1 (stereo not shown) [Example 1.1.19] | – | – | – | – | – | – | 100% | 100% | 100% | 100% | 100% | 100%
